Reference: ChEMBL document CHEMBL1201862, “PubChem BioAssay data set” (2004)
Calls of active or inactive are those of the source.

Tests used:
CAAX prenyl protease 1 = CAAX prenyl protease 1 (Saccharomyces cerevisiae S288c, UniProt P47154); test: yeast CAAX protease Ste24 inhibition – biochemical, S. cerevisiae, plate reader, cherry-pick, dose response (AID 488815)
Vero [1] = test: cells; assay type: functional; details: Chlorocebus sabaeus
Vero [2] = test: cells; assay type: functional, cell-based; details: Chlorocebus sabaeus
[3] = Luminescence Cell-Based Dose Retest to Confirm Inhibitors of Cancer Stem Cells. [Related pubchem assays (depositor defined):AID2717, AID2721]; assay type: functional; details: Homo sapiens
[4] = HepG2 cell cytotoxicity, dose response, cytotoxicity control for non-replicating M. tuberculosis project (AID 489018); assay type: functional; details: Mycobacterium tuberculosis
Vero [5] = test: mammalian cell viability reduction – secondary assay, cytotoxicity control for West Nile virus antiviral project, dose response (AID 1650); assay type: functional; details: Chlorocebus sabaeus
CAAX prenyl protease 2 = CAAX prenyl protease 2 (Saccharomyces cerevisiae S288c, UniProt Q03530); assay type: biochemical
Sequence of CAAX prenyl protease 2 (Q03530 whole entry): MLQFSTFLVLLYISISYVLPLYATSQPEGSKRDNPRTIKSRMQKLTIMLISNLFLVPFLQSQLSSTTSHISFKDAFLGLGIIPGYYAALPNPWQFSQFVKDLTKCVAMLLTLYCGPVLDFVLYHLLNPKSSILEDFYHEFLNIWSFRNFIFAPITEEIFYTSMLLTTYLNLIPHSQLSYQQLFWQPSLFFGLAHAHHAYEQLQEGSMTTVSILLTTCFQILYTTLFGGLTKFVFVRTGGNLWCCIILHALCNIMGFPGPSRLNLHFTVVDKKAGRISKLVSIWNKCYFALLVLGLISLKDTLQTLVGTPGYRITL

[6] = THP-1 cell cytotoxicity, dose response, cytotoxicity control for non-replicating M. tuberculosis project (AID 489025); assay type: functional

Sequence of CAAX prenyl protease 1 (P47154 whole entry): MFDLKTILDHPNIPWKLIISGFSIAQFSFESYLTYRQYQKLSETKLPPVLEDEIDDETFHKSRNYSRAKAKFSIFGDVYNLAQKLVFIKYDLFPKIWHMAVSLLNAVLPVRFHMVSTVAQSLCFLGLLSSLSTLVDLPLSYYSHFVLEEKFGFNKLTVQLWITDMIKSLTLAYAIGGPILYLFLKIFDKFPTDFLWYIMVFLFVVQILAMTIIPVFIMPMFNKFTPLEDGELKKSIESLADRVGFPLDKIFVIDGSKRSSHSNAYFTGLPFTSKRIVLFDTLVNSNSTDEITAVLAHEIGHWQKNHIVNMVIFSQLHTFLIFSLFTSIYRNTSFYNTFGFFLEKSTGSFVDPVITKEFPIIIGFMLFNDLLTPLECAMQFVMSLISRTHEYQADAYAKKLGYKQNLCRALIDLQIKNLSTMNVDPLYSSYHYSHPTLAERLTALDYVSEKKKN

CCN(CC)CCNC(=O)c1[nH]c2ccc(OCc3ccccc3)cc2c1C
active: AC50 (CAAX prenyl protease 1) 4.58 µM | CC50 (Vero [1]) > 25 µM | IC50 (Vero [2]) > 25 µM | AC50 [3] 1.18 µM | CC50 [4] 17 µM | CC50 (Vero [5]) 29.4 µM | AC50 (CAAX prenyl protease 2) 14.1 µM | CC50 [6] 25.6 µM
